In patent US20260125428A1, “SYNTHETIC TRIPLEX PEPTIDE NUCLEIC ACID-BASED INHIBITORS FOR CANCER THERAPY” (University of Connecticut, priority 2022, published 2026):

How the values were obtained:
U2932 cells = assay: Viability of U2932 cells, combination of PNAs with HDAC inhibitors and other drugs
Description: FIGS. 9A-D show cell viability after treatment with indicated PNAs. (9A) The viability of U2932 cells after treatment with γPNA1-NLS (8 μM), romidepsin (10 nM) and combination of γPNA1-NLS with romidepsin over 96 hours. (9B) The viability of U2932 cells after treatment with γPNA2-NLS (8 μM), romidepsin (10 nM) and combination of γPNA2-NLS with romidepsin over 96 hours. (9C) Fold change in C-Myc levels after combination of γPNA1-NLS and γPNA2-NLS with romidepsin in comparison to only romidepsin treatment. (9D) Fold change in BCL2 levels after combination of γPNA1-NLS and γPNA2-NLS with romidepsin in comparison to only romidepsin treatment.
FIGS. 10A-F show the viability of U2932 cells after indicated treatment. (10A) Viability of U2932 cells after treatment with γPNA2-NLS […], vorinostat (2.5 μM) and combination of γPNA2-NLS with vorinostat over 96 hours. (10B) The viability of U2932 cells after treatment with γPNA2-NLS (8 μM), valproic acid (2 mM) and combination of γPNA2-NLS with valproic acid over 96 hours. […] (10E) The viability of U2932 cells after treatment with CHOP (cyclophosphamide, vincristine, doxorubicin, prednisone) and combination of γPNA2-NLS with CHOP at different doses.
Cell viability: U2932 and Raji cells were seeded in 96 well plates at 20,000 cells/well. PNAs were added to the media at different concentrations (1, 2, 4, and 8 μM). […] The cell viability was then measured via trypan blue staining on day 1, 2, and 4.

C-Myc oncogene [1] = assay: Gene expression (RT-PCR) of C-Myc and downstream targets in Raji cells; assay type: cell-based, human; settings: 24 h, 8 μM
Description: (§1) FIGS. 4A-F show effect of cellular uptake of indicated PNAs. (4A) Expression levels of C-Myc oncogene in U2932 (DLBCL), Raji and Daudi cells (Burkitt's lymphoma) in comparison to the peripheral blood mononuclear cells (PBMC). (4B) Cell viability of U2932 cells after 24 h treatment with indicated PNAs at different doses. (4C) Cell viability of Raji cells after 24 h treatment with indicated PNAs at different doses. (4D) Gene expression levels of C-Myc oncogene and its downstream targets including MCL1 and EZH2 in U2932 cells after 24 h of treatment with γPNA1-NLS, γPNA2-NLS, and ScrγPNA4-NLS at 8 μM. (4E) Gene expression levels of C-Myc oncogene and its downstream targets including BCL2 and EZH2 in Raji cells after 24 h of treatment with γPNA1-NLS, γPNA2-NLS, and ScrγPNA4-NLS at 8 μM. (4F) Gene expression levels of C-Myc in U2932 cells after 24 h treatment with γPNA2-NLS and ScrγPNA4-NLS at indicated doses.
(§2) Gene expression: The levels of mRNA were measured in different cell lines using real time-polymerase chain reaction (RT-PCR). Both untreated (PBMC, U2932, Raji, Daudi) and PNA treated lymphoma cells were collected at the end of treatment. Total RNA was extracted using Qiagen RNeasy® kit (USA) and concentration was measured by Nanodrop™. cDNA was synthesized using high capacity cDNA reverse transcription kit (Applied Biosystem, USA) following the recommended cycling conditions. Taqman® gene expression assay for C-Myc, EZH2, BCL2, MCL1 and GAPDH were used to amplify the respective mRNAs using the specified cycling conditions in the CFX Real-Time PCR detection system. GAPDH was used as the reference gene and fold change in mRNA expression was obtained by normalizing against the untreated cells or cells treated with HDAC inhibitors.

C-Myc oncogene [2] = assay: Gene expression (RT-PCR) of C-Myc and downstream targets in U2932 cells; assay type: cell-based, human; settings: RT-PCR, 24 h, 8 μM
Description: as §1, §2

C-Myc oncogene [3] = assay: Gene expression (RT-PCR) in U2932 cells after combination treatment; assay type: cell-based, human
Description: as §2

U2932 derived xenografts = assay: Tumor growth and survival study in U2932 derived xenograft mice; assay type: in vivo; settings: 5 mg/kg systemic on day 1, 4, 7, and 10
Description: FIGS. 7A-C show survival data of mice after systemic administration of indicated PNAs. (7A) Graph representing the tumor volume of U2932 xenografts after systemic treatment with indicated PNAs (n≥4 mice per group). PNAs were administered systemically on day 1, 4, 7, and 10 (n≥4 mice per group). (7B) The survival of U2932 derived xenograft mice after treatment with γPNA2-NLS, γPNA3, and ScrγPNA4-NLS at 5 mg/kg dose in comparison to the control (saline) mice. (7C) Complete blood count analysis of mice from different groups at the end of the study. RBC: red blood cells; WBC: white blood cells; HGB: hemoglobin; PLT: platelets; HCT: hematocrit; MCH: […]. (D) Blood chemistry analysis of mice from different groups at the end of the study. ALT: alanine transaminase; AST: aspartate transaminase; BUN: blood urea nitrogen; LDH: Lactate dehydrogenase. Results are presented as mean±SEM (n≥4).
In vivo studies in xenograft mice model: U2932 derived xenografts were generated by implanting 10 million cells subcutaneously on the lower right flank of the female NSG mice (NOD.Cg-Prkdc^scidIl2rg^tm1Wj1/SzJ, #005557, Jackson Laboratories, USA) of 5-6 weeks. The mice were maintained in the animal care facility at the University of Connecticut following the required Institutional Animal Care and Use Committee guidelines (IACUC). Mice developed palpable tumors after 3-4 weeks of implantation. Tumor dimensions including length (l), breadth (b), and height (h) were measured using a caliper and volume was calculated using the formula for ellipsoid (0.5236×lbh).
Survival study: Mice bearing tumors about 100-150 mm^3 were divided into 4 groups. Mice were treated with either γPNA2-NLS, γPNA3, Scr-γPNA4-NLS, or saline. PNAs were administered at 5 mg/kg dose on day 1, 4, 7, and 10. The change in tumor volume was measured every day. Mice were euthanized when the tumor volume reached 2000 mm^3. Blood was collected via cardiac punter in 1.5 ml tubes containing 0.5 M EDTA. Organs including tumor, liver, kidney, spleen, heart and lung were collected. Tumor fraction and all organs were kept in 10% formalin and submitted for histology. The complete blood count analysis was performed on the collected blood samples using Sysmex CBC analyzer. Plasma was separated from the blood samples and submitted to Antech diagnostic for blood chemistry analysis to quantify the levels of alanine transaminase, lactate dehydrogenase, aspartate transaminase and blood urea nitrogen.

C/C=C1\NC(=O)[C@H]2CSSCC/C=C/[C@H](CC(=O)N[C@H](C(C)C)C(=O)N2)OC(=O)[C@H](C(C)C)NC1=O [Romidepsin, reference compound]
cytotoxicity at 0.01 µM (U2932 cells; Homo sapiens, U2932, 96 h, read-out: decrease in viability, alone): 60%

JJJJTTJJ-OOO-CCTTCCCCACCCTCCCCACCCTC-K-OOO-VKRKKKP (gamma PNA tail clamp; linkers; NLS peptide; misc_feature 1 JJJJTTJJ-linker- is covalently linked to the backbone, wherein J is pseudoisocytosine and the linker is 11-Amino-3,6,9-Trioxaundecanoic Acid (DCHA), represented as -OOO-; misc_feature 23 -K-linker-SEQ ID NO: 5 is covalently linked to the backbone, wherein the linker is 11-Amino-3,6,9-Trioxaundecanoic Acid (DCHA), represented as -OOO-; modified_base 1..23 OTHER; peptide nucleic acid) [γPNA1-NLS]
change in levels of C-Myc (in words) (C-Myc oncogene [1]): did not observe any change in levels of C-Myc | levels of downstream targets BCL2 and EZH2 (C-Myc oncogene [1]): no change in their levels | combination effect with romidepsin on viability (in words) (U2932 cells; U2932 cells, romidepsin 10 nM, PNA 8 uM): synergistic activity | decrease in U2932 cell viability, combination with romidepsin (U2932 cells; romidepsin 10 nM pretreatment 24 h, PNA 8 uM, day 4): approximately 80% | change in levels of C-Myc (in words) (C-Myc oncogene [2]): did not observe any change in levels of C-Myc | levels of downstream targets MCL1 and EZH2 (C-Myc oncogene [2]): no change in their levels | BCL-2 levels, combination with romidepsin in comparison to only romidepsin (C-Myc oncogene [3]; day 4): reduced levels | decrease in C-Myc levels, combination with romidepsin compared with only romidepsin (C-Myc oncogene [3]; day 4, PNA 8 uM, romidepsin 10 nM): approximately 50%

X3TCCCTCCCTCCGTTCTTTTTCCCX4 (JJJTJJJT linker N-term; C-terminal lysine; gammaPNA; misc_feature 1 JJJTJJJT-linker- is covalently linked to the backbone, wherein J is pseudoisocytosine and the linker is 11-Amino-3,6,9-Trioxaundecanoic Acid (DCHA), represented as -OOO-; misc_feature 23 K is covalently linked to the backbone; modified_base 1..23 OTHER; peptide nucleic acid) [γPNA3, site 2 gamma tail clamp PNA without NLS]
tumor growth in comparison to the control groups (U2932 derived xenografts): significantly reduced tumor growth | survival of the mice (U2932 derived xenografts; saline 21 days): 23 days
